From patent US7582631B2, “Substituted heterocyclic compounds and methods of use” (Amgen Inc., priority 2004, dated 2009)
pIC50: −log10 of the molar value.

Key:
whole human blood = experiment: Anti-CD3/anti-CD28-induced IL-2 Secretion in Whole Human Blood; type: cell-based; conditions: 48 h, IL-2 by ELISA, threshold 5 μM
Procedure: Anti-CD3/anti-CD28-induced IL-2Secretion in Whole Human Blood
The purpose of this assay is to test the potency of T cell receptor (TCR; CD3) and CD28 signaling pathway inhibitors in whole human blood. Anti-CD3 antibody (10 ug/mL; R&D Systems) is precoated on the wells of 96-well plates. Compounds are added in T-cell dilution media (Iscoves modified DMEM), supplemented with 0.1% human serum albumin, 5 uM Beta-mercaptoethanol, and 1×Pen/Strep/Glu. Compounds are tested in triplicate. 100 μL of whole human blood (collected in heparinized tubes) is added to each well and the plates are incubated for 30 minutes at 37° C., 5% CO2. Anti-CD28 antibody (2 ug/mL; R&D Systems) is diluted in T-cell dilution media and is added to the wells. The mixture is incubated for 48 h at 37° C., 5% CO2. The cells are then pelleted, and the supernatant collected and IL-2 production determined by ELISA (R&D Systems).

human T cells = experiment: Anti-CD3/anti-CD28-induced T cell IL-2 Secretion and Proliferation Assay; type: cell-based; conditions: list printed after the T cell IL-2 secretion/proliferation method, threshold 500 μM

pIC50 (whole human blood)	Compound	pIC50 (human T cells)
> 5.30	CCN1CC2CC1CN2c1nc(-c2ccnc(N[C@@H](C)c3ccccc3)c2)nc2ccccc12 (stereo partly drawn) [(S)-{4-[4-(5-Ethyl-(1S,4S)-2,5-diaza-bicyclo[2.2.1]hept-2-yl)-quinazolin-2-yl]-pyridin-2-yl}-(1-phenyl-ethyl)-amine]	–
–	CC(C)N1CC2CC1CN2c1nc(-c2ccnc(N[C@@H](C)c3ccccc3)c2)nc2ccccc12 (stereo partly drawn) [(S)-{4-[4-(5-Isopropyl-(1S,4S)-2,5-diaza-bicyclo[2.2.1]hept-2-yl)-quinazolin-2-yl]-pyridin-2-yl}-(1-phenyl-ethyl)-amine]	> 3.30
–	C[C@H](Nc1cc(-c2nc(N3CC4CC3CN4C)c3ccccc3n2)ccn1)c1ccccc1 (stereo partly drawn) [(S)-{4-[4-(5-Methyl-(1S,4S)-2,5-diaza-bicyclo[2.2.1]hept-2-yl)-quinazolin-2-yl]-pyridin-2-yl}-(1-phenyl-ethyl)-amine]	> 3.30
> 5.30	Fc1ccc2c(N3CC4CC3CN4)nn(-c3ccnc(NCc4ccccc4)c3)c2c1 [Benzyl-{4-[3-((1S,4S)-2,5-diaza-bicyclo[2.2.1]hept-2-yl)-6-fluoro-indazol-1-yl]-pyridin-2-yl}-amine]	> 3.30
> 5.30	C[C@H](Nc1cc(-c2cc3nccn3c(N3C[C@@H]4C[C@H]3CN4)n2)ccn1)c1ccccc1 [Example 3, (S)-{4-[5-((1S,4S)-2,5-Diaza-bicyclo[2.2.1]hept-2-yl)-imidazo[1,2-c]pyrimidin-7-yl]-pyridin-2-yl}-(1-phenyl-ethyl)-amine]	–
> 5.30	CC(C)N1C[C@@H]2C[C@H]1CN2c1nc(-c2ccnc(N[C@@H](C)c3ccccc3)c2)cc2nccn12 [Example 4, (S)-{4-[5-(5-Isopropyl-(1S,4S)-2,5-diaza-bicyclo[2.2.1]hept-2-yl)-imidazo[1,2-c]pyrimidin-7-yl]-pyridin-2-yl}-(1-phenyl-ethyl)-amine]	> 3.30
> 5.30	CCN1C[C@@H]2C[C@H]1CN2c1nc(-c2ccnc(N[C@@H](C)c3ccccc3)c2)cc2nccn12 [Example 5, (S)-{4-[5-(5-Ethyl-(1S,4S)-2,5-diaza-bicyclo[2.2.1]hept-2-yl)-imidazo[1,2-c]pyrimidin-7-yl]-pyridin-2-yl}-(1-phenyl-ethyl)-amine]	–
> 5.30	C[C@H](Nc1cc(-n2nc(N3C[C@@H]4C[C@H]3CN4)c3ccccc32)ccn1)c1ccccc1F [Example 24, (S)-{4-[3-((1S,4S)-2,5-Diaza-bicyclo[2.2.1]hept-2-yl)-indazol-1-yl]-pyridin-2-yl}-[1-(2-fluoro-phenyl)-ethyl]-amine]	–
–	C[C@H](Nc1cc(-n2nc(N3C[C@@H]4C[C@H]3CN4)c3ccccc32)ccn1)c1ccccc1 [Example 43, (S)-{4-[3-((1s, 4S)-2,5-Diaza-bicyclo[2.2.1]hept-2-yl)-indazol-1-yl]-pyridin-2-yl}-(1-phenyl-ethyl)-amine]	> 3.30
> 5.30	CC(C)N1C[C@@H]2C[C@H]1CN2c1nn(-c2ccnc(N[C@@H](C)c3ccccc3)c2)c2ccccc12 [Example 44, (S)-{4-[3-(5-Isopropyl-(1S,4S)-2,5-diaza-bicyclo[2.2.1]hept-2-yl)-indazol-1-yl]-pyridin-2-yl}-(1-phenyl-ethyl)-amine]	> 3.30
> 5.30	C[C@H](Nc1cc(-c2nc(N3C[C@@H]4C[C@H]3CN4)c3ccccc3n2)ccn1)c1ccccc1 [Example 49, {4-[4-((1S,4S)-2,5-Diaza-bicyclo[2.2.1]hept-2-yl)-quinazolin-2-yl]-pyridin-2-yl}-(S)-(1-phenyl-ethyl)-amine]	> 3.30
–	C[C@H](Nc1cc(-c2cc(N3C[C@@H]4C[C@H]3CN4)c3ccccc3n2)ccn1)c1ccccc1 [Example 51, (S)-{4-[4-((1S,4S)-2,5-Diaza-bicyclo[2.2.1]hept-2-yl)-quinolin-2-yl]-pyridin-2-yl}-(1-phenyl-ethyl)-amine]	> 3.30
> 5.30	CC(C)N1C[C@@H]2C[C@H]1CN2c1cc(-c2ccnc(N[C@@H](C)c3ccccc3)c2)nc2ccccc12 [Example 52, (S)-{4-[4-(5-Isopropyl-(1S,4S)-2,5-diaza-bicyclo[2.2.1]hept-2-yl)-quinolin-2-yl]-pyridin-2-yl}-(1-phenyl-ethyl)-amine]	> 3.30
> 5.30	Fc1ccccc1CNc1cc(-c2cc3nccn3c(N3C[C@@H]4C[C@H]3CN4)n2)ccn1 [Example 57, {4-[5-((1S,4S)-2,5-Diaza-bicyclo[2.2.1]hept-2-yl)-imidazo[1,2-c]pyrimidin-7-yl]-pyridin-2-yl}-(2-fluoro-benzyl)-amine]	> 3.30
–	CCN1C[C@@H]2C[C@H]1CN2c1nc(-c2ccnc(N[C@@H](C)c3ccccc3)c2)nc2ccccc12 [Example 64, (S)-{4-[4-(5-Ethyl-(1S,4S)-2,5-diaza-bicyclo[2.2.1]hept-2-yl)-quinazolin-2-yl]-pyridin-2-yl}-(1-phenyl-ethyl)-amine]	> 3.30
> 5.30	CC(C)N1C[C@@H]2C[C@H]1CN2c1nc(-c2ccnc(N[C@@H](C)c3ccccc3)c2)nc2ccccc12 [Example 65, (S)-{4-[4-(5-Isopropyl-(1S,4S)-2,5-diaza-bicyclo[2.2.1]hept-2-yl)-quinazolin-2-yl]-pyridin-2-yl}-(1-phenyl-ethyl)-amine]	–
> 5.30	CC(C)N1C[C@@H]2C[C@H]1CN2c1nccc(-c2ccnc(N[C@@H](C)c3ccccc3)c2)n1 [Example 66, (S)-{4-[2-(5-Isopropyl-(1S,4S)-2,5-diaza-bicyclo[2.2.1]hept-2-yl)-pyrimidin-4-yl]-pyridin-2-yl}-(1-phenyl-ethyl)-amine]	–
> 5.30	c1ccc(CNc2cc(-n3nc(N4C[C@@H]5C[C@H]4CN5)c4ccccc43)ccn2)cc1 [Example 69]	> 3.30
